{"source": "patent US20030027820A1", "about": "“Method for treating fibrotic diseases or other indications V” (Alteon, Inc., priority 2001, published 2003)", "key": {"[1]": {"experiment": "Dog model for diabetes, ventricular elasticity", "assay_type": "in vivo", "description": "(§1) Cardiovascular risk correlates more closely with the systolic and the pulse pressure than with the diastolic pressure. In diabetic patients, the cardiovascular risk profile of diabetic patients is strongly correlated to duration of diabetes, glycemic control and blood pressure. Structural matrix proteins contribute to the function of vessels and the heart, and changes in the physical behavior of cardiovascular walls are believed to be important determinants of circulatory function. In elderly individuals, the loss of compliance in the aorta leads to isolated systolic hypertension, which in turn expands the arterial wall and thereby diminishes the dynamic range of elasticity. Loss of compliance also results in the development of left ventricular hypertrophy."}, "[2]": {"tested_on": "collagen in cardiovascular tissues", "experiment": "Mass of collagen in cardiovascular tissues after treatment", "assay_type": "in vivo", "description": "as §1"}, "Phase IIa clinical trial": {"experiment": "Phase IIa clinical trial", "assay_type": "in vivo, human", "description": "When the heart pumps blood into the vascular system, the ability of the arteries to expand helps to push blood through the body. When arteries become stiff, as they do in the natural process of aging, the ability of the arteries to expand is diminished and also has consequences for the heart. The heart has to work harder to pump the blood into the stiff arteries, and eventually hypertrophies (enlarges in size) to accomplish this. A hypertrophied heart is an inefficient pump, and is one of the disorders that leads to congestive heart failure. […] The potential clinical benefit of this is to lessen the effort that the heart must expend to push blood throughout the body. The effect is also believed to contribute to preventing hypertrophy and subsequent inefficiency of the heart, which inefficiency would contribute to congestive heart failure.\nAtherosclerosis is a disease that involves deposition of blood lipids in plaque in the arteries throughout the body. In coronary arteries, accumulation of plaque progressively leads to reduced coronary flow, with occlusion of the arteries causing focal death of cardiac tissue (myocardial infarction, heart attack). If the amount of tissue that dies is large enough, death ensures. […] Reducing local deposits of plaque should eventually lessen the risk of myocardial infarction and death due to heart attacks.\nPulse pressure is the difference between systolic and diastolic blood pressure. In a young human, systolic pressure is typically 120 mm Hg and diastolic pressure is 80 mm Hg, resulting in a pulse pressure of 40 mm Hg. With age, in many individuals pulse pressure increases, largely due to the increase in systolic pressure that results from stiff vessel disease. In individuals with pulse pressure greater than 60 mm Hg there is an increased risk of death from cardiovascular morbidities."}, "[3]": {"experiment": "In vivo studies of vascular stiffening in rodents, canines and primates", "description": "as §1"}, "TGFbeta": {"tested_on": "TGFbeta", "experiment": "In situ hybridization studies, TGFbeta", "assay_type": "in vivo", "description": "as §1"}, "Type IV collagen": {"tested_on": "Type IV collagen", "experiment": "In situ hybridization studies, Type IV collagen", "assay_type": "in vivo", "description": "as §1"}}, "note": "Counter-ions that a name gives are not always drawn.", "data": [{"smiles": "Cc1sc[n+](CC(=O)c2ccccc2)c1C", "note": "[3-[2-phenyl-2-oxoethyl]-4,5-dimethyl-thiazolium salt]", "values": [{"measurement": "end diastolic pressure (indicator of ventricular elasticity)", "setting": "[1]", "result": "returned to a value at about the mid-point between the disease impaired value and the value for control dogs"}, {"measurement": "end diastolic volume (indicator of ventricular elasticity)", "setting": "[1]", "result": "returned to a value at about the mid-point between the disease impaired value and the value for control dogs"}, {"measurement": "mass of collagen in cardiovascular tissues", "setting": "[2]", "result": "reduction in the mass of collagen in cardiovascular tissues"}, {"measurement": "stiffness of arteries, as measured by the ratio of stroke volume (ml) to pulse pressure (mm Hg)", "setting": "Phase IIa clinical trial; Phase IIa clinical trial", "result": "showed an ability to reverse the stiffness of arteries"}, {"measurement": "amount of circulating triglycerides (lipids)", "setting": "Phase IIa clinical trial; Phase IIa trial", "result": "increased the amount of circulating triglycerides"}, {"measurement": "systolic blood pressure", "setting": "Phase IIa clinical trial; Phase IIa trial, believed to be the primary cause of the pulse pressure decrease", "result": "lowering the systolic blood pressure"}, {"measurement": "pulse pressure", "setting": "Phase IIa clinical trial; Phase IIa trial, elderly patients with pulse pressures greater than 60 mm Hg", "result": "reduced pulse pressure in elderly patients with pulse pressures greater than 60 mm Hg in a statistically significant manner"}, {"measurement": "vascular stiffening", "setting": "[3]", "result": "substantially ameliorating vascular stiffening"}, {"measurement": "expression of TGFbeta", "setting": "TGFbeta", "result": "reduces the expression of both Type IV collagen and TGFbeta"}, {"measurement": "expression of Type IV collagen", "setting": "Type IV collagen", "result": "reduces the expression of both Type IV collagen and TGFbeta"}]}]}
